“Also recorded” adds a separate entry of the source.
Tests used:
[1] = cited from earlier work
[2] = phase 1b trial: plasma pharmacokinetics in CHB patients; conditions: for mean plasma trough concentration relative to protein-binding adjusted HBV DNA EC50 (135 ng/mL): day 28
Description: Blood samples for Canocapavir PK analysis were collected at different time points, and were collected and placed into a vacutainer with an anticoagulant (K2-EDTA), followed by centrifugation at 2,000 g and 4 °C for 10 min to collect the plasma.
All of these parameters in the treatment cohorts were analyzed using the descriptive statistics methods provided by SAS 9.1 software (Cary, NC, USA). The dose proportionality of Canocapavir was evaluated by the power model and the linear fixed-effect model. Descriptive analysis was used for safety, tolerability and antiviral activity indexes. Please see Additional file 1 for the detailed methodology.
The concentration of Canocapavir was determined using a validated high-performance liquid chromatography-tandem mass spectrometry method of FRONTAGE Laboratories (Shanghai, China), with a detection range of 10–10,000 ng/mL.
Blood samples for Canocapavir PK analysis were collected at different time points, including preadministration (30 min predosing) and 0.5, 1, 2, 3, 4, 6, 8, 12, and 24 h postdosing on day 1; predosing on days 8, 15, 22, 27, and 28; and 0.5, 1, 2, 3, 4, 6, 8, 12, 24, 48, and 72 h postdosing on day 28.

HBV = test: phase 1b trial: antiviral activity (serum HBV markers) in CHB patients; format: in vivo, Hepatitis B virus
Description: The changes in the serum levels of HBV DNA, HBV pgRNA, HBcrAg, HBsAg, HBsAb, HBeAg, HBeAb, and HBcAb at different time points were examined. Blood samples were collected on the initial screening day (baseline) and days 1, 8, 15, 22, 29, 43 ± 1, and 57 ± 2 postdosing.
The HBV DNA level was measured using a COBAS TaqMan kit (Roche Diagnostics, Pleasanton, CA, USA), according to the manufacturer’s instructions. The lowest detectable level using this kit was 20 IU/mL. The serum levels of HBeAg and HBsAg were quantitatively assessed by a chemiluminescence method using Abbott Architect assays (Abbott Diagnostics; Abbott Park, IL, USA). The lowest detectable level of the kit for HBeAg and HBsAg were 1 and 0.05 IU/mL, respectively.

[3] = 100 mg q.d., single patient with ALT flare

O=C1CO[C@H](c2cn(-c3ccc(Br)cc3)nc2-c2ccc(F)cc2)N1CCc1ccc2[nH]c(=O)[nH]c2c1 [Canocapavir]
accumulation rate after multiple administration ([1]; healthy subjects): 1.7–2.3
dose proportionality of mean plasma AUC and Cmax ([1]; healthy subjects): increased in a dose-proportional manner
food effect on drug absorption ([1]; healthy subjects): Food had an effect on the drug absorption
half-life after multiple administration ([1]; healthy subjects): 12.2 to 21.7 h
margin between plasma exposure and anti-HBV activity EC50 in vitro ([1]; healthy subjects): 11.2–37.5 fold
most common AE ([1]; healthy subjects): increased ALT
safety and tolerability in healthy subjects ([1]; single doses 25–450 mg, multiple doses 75–300 mg q.d. for 14 days): safe and well tolerated
mean plasma trough concentration relative to protein-binding adjusted HBV DNA EC50 (135 ng/mL) ([2]; 100 mg q.d.): 7.0 fold
mean plasma trough concentration relative to protein-binding adjusted HBV DNA EC50 (135 ng/mL) ([2]; 200 mg q.d.): 14.6 fold
power model slope (regression coefficient) of exposure (Cmax and AUC) vs dose ([2]; human, in vivo): 0.82–1.14
time to maximum concentration (Tmax) ([2]; human, in vivo): 2 to 3 h
AUC0-∞ ([2]; human, in vivo, 50 mg): 25,625.6 ± 15,804.7 h·ng/mL
CL/F ([2]; human, in vivo, 50 mg): 3.4 ± 1.5 L/h
Vz/F ([2]; human, in vivo, 50 mg): 61.4 ± 23.0 L
t1/2 ([2]; human, in vivo, 50 mg): 13.0 ± 1.9 h
AUC0-∞ ([2]; human, in vivo, 100 mg): 59,399.0 ± 18,159.0 h·ng/mL
CL/F ([2]; human, in vivo, 100 mg): 2.5 ± 0.6 L/h
Tmax ([2]; human, in vivo, 100 mg): 3.0 (2.0, 4.0) h
Vz/F ([2]; human, in vivo, 100 mg): 42.3 ± 10.9 L
t1/2 ([2]; human, in vivo, 100 mg): 12.1 ± 3.7 h
AUC0-∞ ([2]; human, in vivo, 200 mg): 120,090.0 ± 57,318.9 h·ng/mL
CL/F ([2]; human, in vivo, 200 mg): 3.3 ± 2.0 L/h
Vz/F ([2]; human, in vivo, 200 mg): 73.6 ± 43.4 L
mean t1/2 after the last dosage ([2]; human, in vivo, 200 mg): 12.1 to 15.6 h
t1/2 ([2]; human, in vivo, 200 mg): 15.6 ± 2.3 h
patients with HBV DNA reduced below the lower limit of quantification (HBV; 50 mg q.d.): 0 number of patients (percentage
patients with HBV pgRNA reduced below the lower limit of quantification (~ 2 log10 copies/mL) (HBV; 50 mg q.d.): 1 (12.5%) number of patients (percentage
maximum mean HBcrAg decrease (HBV; 50 mg q.d., 28 days): -0.30 log10 kU/mL
mean maximum HBV DNA decline from baseline (HBV; 50 mg q.d., 28 days): -1.54 log10 IU/mL
mean maximum HBV pgRNA decline from baseline (HBV; 50 mg q.d., 28 days): -1.53 log10 copies/mL
HBV DNA response, subject E2003 with pre-existing HBc P25S substitution (HBV; 50 mg q.d., HBeAg (+) patient): no decrease
HBV pgRNA response, subject E2003 with pre-existing HBc P25S substitution (HBV; 50 mg q.d., HBeAg (+) patient): only slightly decreased; also recorded: only a slight decrease
patients with HBV DNA reduced below the lower limit of quantification (HBV; 100 mg q.d.): 1 (12.5%) number of patients (percentage
patients with HBV pgRNA reduced below the lower limit of quantification (~ 2 log10 copies/mL) (HBV; 100 mg q.d.): 1 (12.5%) number of patients (percentage
maximum mean HBcrAg decrease (HBV; 100 mg q.d., 28 days): -0.61 log10 kU/mL
mean maximum HBV DNA decline from baseline (HBV; 100 mg q.d., 28 days): -2.50 log10 IU/mL
mean maximum HBV pgRNA decline from baseline (HBV; 100 mg q.d., 28 days): -2.35 log10 copies/mL
maximum decrease of HBV DNA, patient E3010 (HBV; [3]): -3.23 log10 IU/mL
maximum decrease of HBV pgRNA, patient E3010 (HBV; [3]): -3.71 log10 copies/mL
maximum decrease of HBcrAg, patient E3010 (HBV; [3]): -1.96 log10 kU/mL
maximum decrease of HBsAg, patient E3010 (HBV; [3]): -0.22 log10 IU/mL
patients with HBV DNA reduced below the lower limit of quantification (HBV; 200 mg q.d.): 1 (12.5%) number of patients (percentage
patients with HBV pgRNA reduced below the lower limit of quantification (~ 2 log10 copies/mL) (HBV; 200 mg q.d.): 4 (50.0%) number of patients (percentage
maximum mean HBcrAg decrease (HBV; 200 mg q.d., 28 days): -0.51 log10 kU/mL
mean maximum HBV DNA decline from baseline (HBV; 200 mg q.d., 28 days): -2.75 log10 IU/mL
mean maximum HBV pgRNA decline from baseline (HBV; 200 mg q.d., 28 days): -2.34 log10 copies/mL
change of HBeAg level (HBV; 50–200 mg q.d., 28 days): Neither the HBsAg nor HBeAg levels decreased
change of HBsAg level (HBV; 50–200 mg q.d., 28 days): Neither the HBsAg nor HBeAg levels decreased
changes in levels of HBsAb, HBeAb, HBcAb (HBV; 50–200 mg q.d., 28 days): no clinically significant changes

— PMC10022191, “Safety, tolerability, pharmacokinetics, and antiviral activity of the novel core protein allosteric modulator ZM-H1505R (Canocapavir) in chronic hepatitis B patients: a randomized multiple-dose escalation trial” (BMC Medicine, 2023)
